Data from patent publication US20240241113A1, “Method for detecting binding to an ADP-ribosyl group or a polymer thereof and a kit for performing said method” (priority 2021, published 2024).

Key:
[1] = target: CFP-ALC1 (human) (UniProt Q86WJ1); assay: FRET competition: 250 nM CFP-ALC1 + 500 nM YFP-GAP(PAR), PARylated PARP2 varied; displaced ligand YFP-GAP(PAR) [e]
[2] = target: T1, SARS-CoV-2 nsp3 macrodomain (Severe acute respiratory syndrome coronavirus 2, UniProt P0DTD1); assay: FRET-based binding assay, CFP-SARS-CoV-2 nsp3 macrodomain with MARylated YFP-Gαi
Protocol: (§1) The experiments were carried out in assay buffer (10 mM Bis-Tris-Propane pH 7.0, 3% (w/v) PEG20,000, 0.01% (v/v) Triton X-100 and 0.5 mM TCEP) in 10 μl volume per well unless stated otherwise.
For the screening, 40 nl of 10 mM compound stocks dissolved in DMSO from the FDA-approved drug library (Enzo Life Sciences) were transferred to 384-well black low-volume polypropylene plates (Fisherbrand). The sample mixture containing 1 μM CFP-SARS-CoV-2 nsp3 macrodomain and 5 μM MARylated YFP-Gαi was prepared in assay buffer (10 mM Bis-Tris-Propane pH 7.0, 3% (w/v) PEG20,000, 0.01% (v/v) Triton X-100 and 0.5 mM TCEP) and 20 μl per well were dispensed using Mantis (Formulatrix). The rFRET signal was determined after 5 minute incubation time.

[3] = target: T1, SARS-CoV-2 nsp3 macrodomain; assay: Validation of suramin binding by DSF; conditions: 5 μM macrodomain without tags, suramin 10 μM, 50 μM, 100 μM or 1 mM
Protocol: The SARS-CoV-2 nsp3 macrodomain without tags was diluted to 5 μM in 10 mM HEPES pH 7.5, 25 mM NaCl, 0.5 mM TCEP buffer and mixed with 5×SYPRO Orange. Samples were prepared with 10 μM, 50 μM, 100 μM or 1 mM of suramin. […] Samples were transferred to 96-well qPCR plates. Measurement was performed in a BioRad C1000 CFX96 thermal cycler. Data points for melting curves were recorded in 1 min intervals from 20-95° C., with the temperature increasing by 1° C./min. The analysis of the data was done in GraphPad Prism 7 using a nonlinear regression analysis (Boltzmann sigmoid equation) of normalized data.

[4] = tested on: viral and human ADP-ribose readers and erasers; assay: FRET inhibition profile against ADP-ribosyl binders with YFP-GAP(MAR) or YFP-GAP(PAR); assay type: binding; conditions: 10 μM suramin; many of the proteins tested; ratiometric FRET
Protocol: as §1

[5] = tested on: SARS-CoV2; conditions: cell-culture based models; reported; cited from earlier work

Sequence of CFP-ALC1 (human) (Q86WJ1 616-878 limits assumed): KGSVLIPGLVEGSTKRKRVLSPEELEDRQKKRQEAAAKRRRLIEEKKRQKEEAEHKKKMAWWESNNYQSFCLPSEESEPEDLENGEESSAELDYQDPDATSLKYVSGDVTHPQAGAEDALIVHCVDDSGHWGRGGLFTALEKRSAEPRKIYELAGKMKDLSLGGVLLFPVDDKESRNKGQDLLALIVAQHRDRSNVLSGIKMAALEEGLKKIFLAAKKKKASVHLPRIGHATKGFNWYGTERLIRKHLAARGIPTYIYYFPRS

PARylated PARP2 (from UniProt Q9UGN5 90-583) (enzyme)
IC50 (read off the curve) [1]: 0.03 µM

Cc1ccc(C(=O)Nc2ccc(S(=O)(=O)O)c3cc(S(=O)(=O)O)cc(S(=O)(=O)O)c23)cc1NC(=O)c1cccc(NC(=O)Nc2cccc(C(=O)Nc3cc(C(=O)Nc4ccc(S(=O)(=O)O)c5cc(S(=O)(=O)O)cc(S(=O)(=O)O)c45)ccc3C)c2)c1 [suramin]
inhibition at 20 µM ([2]; 20 μM compound, 1 μM CFP-SARS-CoV-2 nsp3 macrodomain, 5 μM MARylated YFP-Gαi, rFRET, read-out: inhibition in screen of ENZO FDA-approved drug library): 82%
IC50 ([2]; FRET-based assay, dose-response curve, read-out: IC50 against the SARS-CoV-2 nsp3 macrodomain): 8.7 µM
stabilization of the protein by DSF [3]: stabilization of the protein in a concentration dependent manner
stabilization of the protein by DSF ([3]; listed as Suramin): stabilization
inhibition of viral and human ADP-ribose readers and erasers [4]: strong inhibition
inhibition of SARS-CoV2 infection [5]: inhibit
